Source: BindingDB's records for doi:10.1021/jm0010623 (Bayer, 2001)

Columns and labels:
[1] = target: DNA gyrase (Micrococcus luteus); experiment: Antibacterial activity against Micrococcus luteus DNA gyrase.
[2] = target: DNA gyrase (Escherichia coli); experiment: Antibacterial activity against Escherichia coli DNA gyrase
[3] = target: DNA topoisomerase I (Escherichia coli); experiment: Antibacterial activity against Escherichia coli DNA topoisomerase I

IC50 [1] [nM] | IC50 [2] [nM] | IC50 [3] [µM] | SMILES
62500 |  |  | COC(=O)c1c(Br)c(OC)cc(O)c1CSC[C@@H](Nc1nc(-c2ccc([N+](=O)[O-])cc2)cs1)C1=NOCCO1
326 | 489 | 195 | COC(=O)c1c(Br)c(OC)cc(O)c1CSC[C@H](Nc1nc(-c2ccc([N+](=O)[O-])cc2)cs1)C(=O)OC [BAY-507950]
625 | 781 | 187 | COC(=O)c1c(Br)c(OC)cc(O)c1CSC[C@H](Nc1nc(-c2ccc([N+](=O)[O-])cc2)cs1)C1=NOCCO1 [BAY-507952]
157 | 157 | 188 | COC(=O)c1c(Br)c(OC)cc(O)c1CSC[C@H](Nc1nc(-c2ccc([N+](=O)[O-])cc2)cs1)c1nc(C)no1 [Ro-616653]
